In the NIST ThermoML archive (doi:10.1007/s10765-011-0995-x):

How the values were obtained:
[1] = 101 kPa, Liquid; for speed of sound: Pulse-echo method
[2] = refractive index (Na D-line) (dimensionless); conditions: 101.33 kPa, Liquid, Standard Abbe refractometry
[3] = xn = mol fraction of the nth substance listed; conditions: 101 kPa, Liquid, x2 = 0; for speed of sound: Pulse-echo method
[4] = refractive index (Na D-line) (dimensionless); xn = mol fraction of the nth substance listed; conditions: 101 kPa, Liquid, Standard Abbe refractometry, x2 = 0

Cc1ccc(Cl)cc1 [4-chlorotoluene]
Conditions	mass density, [1] [kg/m3]	refractive index, [2]	speed of sound, [1] [m/s]	viscosity, [1] [mPa·s]
298.15 K	1065.11	1.5188	1289.1	0.828
303.15 K	1059.51	1.5166	1271	0.784
308.15 K	1053.9	1.5138	1253.1	0.73

CCCCCCCCCCO [decan-1-ol] + Cc1cccc(Cl)c1
Conditions	mass density, [3] [kg/m3]	refractive index, [4]	speed of sound, [3] [m/s]	viscosity, [3] [mPa·s]
298.15 K	826.41	1.4346	1380.1	11.82
303.15 K	822.92	1.4326	1364.9	9.766
308.15 K	819.42	1.4305	1346	8.13

CCCCCCCCCCO [decan-1-ol] + Cc1ccc(Cl)cc1
Conditions	mass density, [3] [kg/m3]	refractive index, [4]	speed of sound, [3] [m/s]	viscosity, [3] [mPa·s]
298.15 K	826.41	1.4346	1380.1	11.82
303.15 K	822.92	1.4326	1364.9	9.766
308.15 K	819.42	1.4305	1346	8.13

CCCCCCCCCCO [decan-1-ol] + Cc1ccccc1Cl
Conditions	mass density, [3] [kg/m3]	refractive index, [4]	speed of sound, [3] [m/s]	viscosity, [3] [mPa·s]
298.15 K	826.41	1.4346	1380.1	11.82
303.15 K	822.92	1.4326	1364.9	9.766
308.15 K	819.42	1.4305	1346	8.13

Cc1ccccc1Cl [2-chlorotoluene]
Conditions	mass density, [1] [kg/m3]	refractive index, [2]	speed of sound, [1] [m/s]	viscosity, [1] [mPa·s]
298.15 K	1077.41	1.5219	1301.2	0.943
303.15 K	1072.83	1.5189	1284.1	0.885
308.15 K	1068.24	1.5169	1266.1	0.805

CCCCCCCCCCO [decan-1-ol]
Conditions	mass density, [1] [kg/m3]	refractive index, [2]	speed of sound, [1] [m/s]	viscosity, [1] [mPa·s]
298.15 K	826.41	1.4346	1380.1	11.82
303.15 K	822.92	1.4326	1364.9	9.766
308.15 K	819.42	1.4305	1346	8.13

Cc1cccc(Cl)c1 [3-chlorotoluene]
Conditions	mass density, [1] [kg/m3]	refractive index, [2]	speed of sound, [1] [m/s]	viscosity, [1] [mPa·s]
298.15 K	1067.29	1.5207	1298.3	0.798
303.15 K	1062.81	1.5189	1280.1	0.746
308.15 K	1058.33	1.5169	1262.1	0.705
